The values below come from patent US11696937B2, “Glycopeptide compounds having activity of resisting drug-resistant bacteria, and preparation method and application thereof” (priority 2018, dated 2023).

One data set has as its system wild AB zebrafish. The experiment in a line: Zebrafish toxicity test. It is filed as in vivo. The settings on record: intravenous injection, 72 hours of treatment, samples in phosphate form. Here is the method:
A zebrafish toxicity test of the compounds in Table 1 is also tested. Randomly select wild AB zebrafish in a six-well plate, and inject each test sample at a dose of 50, 100, 150, 200, and 250 ng/tail intravenously. At the same time, a normal control group and a solvent control group (aqueous phosphoric acid) are set; During this experiment, the death of zebrafish is observed and recorded every day and the dead fish are removed. After 72 hours of treatment, the death of zebrafish is counted. Calculate the LD50 of each test product to zebrafish.
All samples are tested for zebrafish toxicity in phosphate form.

The test system of another data set is ATCC43300 (MRSA). Put plainly: In vitro antibacterial activity (MIC) against MRSA. It counts as cell-based, Methicillin-resistant Staphylococcus aureus. The settings on record: MRSA strain ATCC43300; method of Pharmacopoeia of the People's Republic of China (2015 edition). Here is the method:
(§1) An antibacterial activity of the compounds in Table 1 is determined in vitro, and a minimum inhibitory concentration (MIC) is read. The determination method refers to the method of the Pharmacopoeia of the People's Republic of China (2015 edition). The MRSA detection strain is purchased from ATCC, and the VRE detection strain is from the clinically isolated drug-resistant strain 07-W3-45 from Shanghai Huashan Hospital. Known antibiotic oritavancin (phosphate) is used for a reference drug.

Data set [1] deals with Clinical isolates 07-W3-45 (VRE). The experiment in a line: In vitro antibacterial activity (MIC) against VRE. It counts as cell-based, Vancomycin-resistant Enterococcus. The settings on record: clinically isolated drug-resistant strain 07-W3-45 from Shanghai Huashan Hospital. How it is done: as §1

Converted amounts (≈) assume the structure as drawn.

For the molecule `CNC(CC(C)C)C(=O)NC1C(=O)NC(CC(N)=O)C(=O)NC2C(=O)NC3C(=O)NC(C(=O)NC(C(=O)O)c4cc(O)cc(O)c4-c4cc3ccc4O)C(OC3CC(C)(N)C(O)C(C)O3)c3ccc(c(Cl)c3)Oc3cc2cc(c3OC2OC(CO)C(O)C(O)C2OC2CC(C)(NCc3ccc(NCc4ccc(C)cc4)cc3)C(O)C(C)O2)Oc2ccc(cc2Cl)C1O` (stereo not drawn) [Compound 18], the “Zebrafish LD50” value in the data set on wild AB zebrafish is reported as 128 ng/tail. For the same molecule, the “MIC ATCC43300 (MRSA)” value in the data set with ATCC43300 (MRSA) amounted to 0.5 µg/mL (≈ 0.278 µM). Also, the “MIC Clinical isolates 07-W3-45 (VRE)” value in data set [1] is 1 µg/mL (≈ 0.555 µM).
For the molecule `CNC(CC(C)C)C(=O)NC1C(=O)NC(CC(N)=O)C(=O)NC2C(=O)NC3C(=O)NC(C(=O)NC(C(=O)O)c4cc(O)cc(O)c4-c4cc3ccc4O)C(OC3CC(C)(N)C(O)C(C)O3)c3ccc(c(Cl)c3)Oc3cc2cc(c3OC2OC(CO)C(O)C(O)C2OC2CC(C)(NCc3ccc(NCc4ccc(Cl)cc4)cc3)C(O)C(C)O2)Oc2ccc(cc2Cl)C1O` (stereo not drawn) [Compound 19], the “Zebrafish LD50” value in the data set with wild AB zebrafish is given as 117 ng/tail. Besides, the “MIC ATCC43300 (MRSA)” value in the data set with ATCC43300 (MRSA) worked out at 0.25 µg/mL (≈ 0.137 µM). In addition, the “MIC Clinical isolates 07-W3-45 (VRE)” value in data set [1] was found to be 0.2 µg/mL (≈ 0.11 µM).
For `CNC(CC(C)C)C(=O)NC1C(=O)NC(CC(N)=O)C(=O)NC2C(=O)NC3C(=O)NC(C(=O)NC(C(=O)O)c4cc(O)cc(O)c4-c4cc3ccc4O)C(OC3CC(C)(N)C(O)C(C)O3)c3ccc(c(Cl)c3)Oc3cc2cc(c3OC2OC(CO)C(O)C(O)C2OC2CC(C)(NCc3ccc(NCCc4ccccc4)cc3)C(O)C(C)O2)Oc2ccc(cc2Cl)C1O` (stereo not drawn) [Compound 20], in the data set with wild AB zebrafish, the “Zebrafish LD50” value was found to be 189 ng/tail. Besides, in the data set on ATCC43300 (MRSA), the “MIC ATCC43300 (MRSA)” value was 0.5 µg/mL (≈ 0.278 µM). Moreover, the “MIC Clinical isolates 07-W3-45 (VRE)” value in data set [1] was found to be 2 µg/mL (≈ 1.11 µM).
For the molecule `CNC(CC(C)C)C(=O)NC1C(=O)NC(CC(N)=O)C(=O)NC2C(=O)NC3C(=O)NC(C(=O)NC(C(=O)O)c4cc(O)cc(O)c4-c4cc3ccc4O)C(OC3CC(C)(N)C(O)C(C)O3)c3ccc(c(Cl)c3)Oc3cc2cc(c3OC2OC(CO)C(O)C(O)C2OC2CC(C)(NCc3ccc(NCCc4ccc(Cl)cc4)cc3)C(O)C(C)O2)Oc2ccc(cc2Cl)C1O` (stereo not drawn) [Compound 21], in the data set with wild AB zebrafish, the “Zebrafish LD50” value was 102 ng/tail. Also, the “MIC ATCC43300 (MRSA)” value against ATCC43300 (MRSA) worked out at 0.016 µg/mL (≈ 0.00871 µM). The “MIC Clinical isolates 07-W3-45 (VRE)” value in data set [1] turned out to be 0.5 µg/mL (≈ 0.272 µM).
As to `CNC(CC(C)C)C(=O)NC1C(=O)NC(CC(N)=O)C(=O)NC2C(=O)NC3C(=O)NC(C(=O)NC(C(=O)O)c4cc(O)cc(O)c4-c4cc3ccc4O)C(OC3CC(C)(N)C(O)C(C)O3)c3ccc(c(Cl)c3)Oc3cc2cc(c3OC2OC(CO)C(O)C(O)C2OC2CC(C)(NCc3ccc(NCCc4ccc(C(F)(F)F)cc4)cc3)C(O)C(C)O2)Oc2ccc(cc2Cl)C1O` (stereo not drawn) [Compound 22], the “Zebrafish LD50” value with wild AB zebrafish is reported as 142 ng/tail. For the same molecule, in the data set on ATCC43300 (MRSA), the “MIC ATCC43300 (MRSA)” value was determined as 0.032 µg/mL (≈ 0.0171 µM). Also, the “MIC Clinical isolates 07-W3-45 (VRE)” value in data set [1] was found to be 0.25 µg/mL (≈ 0.134 µM).
As for `CNC(CC(C)C)C(=O)NC1C(=O)NC(CC(N)=O)C(=O)NC2C(=O)NC3C(=O)NC(C(=O)NC(C(=O)O)c4cc(O)cc(O)c4-c4cc3ccc4O)C(OC3CC(C)(N)C(O)C(C)O3)c3ccc(c(Cl)c3)Oc3cc2cc(c3OC2OC(CO)C(O)C(O)C2OC2CC(C)(NCc3ccc(NCCc4ccc(OC)cc4)cc3)C(O)C(C)O2)Oc2ccc(cc2Cl)C1O` (stereo not drawn) [Compound 23], in the data set on wild AB zebrafish, the “Zebrafish LD50” value was determined as 192 ng/tail. The “MIC ATCC43300 (MRSA)” value against ATCC43300 (MRSA) is 0.5 µg/mL (≈ 0.273 µM). Besides, the “MIC Clinical isolates 07-W3-45 (VRE)” value in data set [1] is 1 µg/mL (≈ 0.546 µM).
Regarding `CNC(CC(C)C)C(=O)NC1C(=O)NC(CC(N)=O)C(=O)NC2C(=O)NC3C(=O)NC(C(=O)NC(C(=O)O)c4cc(O)cc(O)c4-c4cc3ccc4O)C(OC3CC(C)(N)C(O)C(C)O3)c3ccc(c(Cl)c3)Oc3cc2cc(c3OC2OC(CO)C(O)C(O)C2OC2CC(C)(NCc3ccc(NCCCc4ccccc4)cc3)C(O)C(C)O2)Oc2ccc(cc2Cl)C1O` (stereo not drawn) [Compound 24], the “Zebrafish LD50” value with wild AB zebrafish was determined as 153 ng/tail. In the data set with ATCC43300 (MRSA), the “MIC ATCC43300 (MRSA)” value amounted to 0.5 µg/mL (≈ 0.275 µM). Besides, the “MIC Clinical isolates 07-W3-45 (VRE)” value in data set [1] came to 1 µg/mL (≈ 0.551 µM).
